Entries after “also recorded” stand apart in the source; their conditions may differ.
Legend:
HSV infected cells = settings: in vitro, cited from earlier work; for Degradation of phosphorylated drug back to parent compound: HSV infected cells, Smee et al
[1] = in vivo; cited from earlier work
[2] = tested on: livers of mice infected with HSV-2; assay: TFT (19F) concentration in mouse livers by 19F NMR spectroscopy after i.v. injection; design: species or system CBA/J mice; HSV-2 (333 strain); settings: in vivo, iv, 100 mg/kg, 3.5 h
Method: (§1) ^19 F assay was carried out in a Nicolet-GE NT-300 NMR spectrometer, using standard techniques with a simple one-pulse sequence. The field was 7.05 Tesla (T) and the frequency was 282 megahertz. Depending upon the volume of the sample available, it was placed :n either a 5 mm or 12 mm diameter tube, which was usually not spun. Both whole liver and liver homogenates were placed in 2 ml of a 2:1 v/v mixture of D2 O: methanol which inactivated HSV, permitted field homogeneity to be optimized and provided field-frequency lock for time averaging. A five-second cycle time was used with a tip angle of 60°. Sweep width was 5000 Hz and 64K data points were collected. Concentration of ^19 F in a sample was evaluated by comparing the electronically integrated area of the resonance peak, after application of 10 Hz line broadening and Fourier transformation of the free induction delays using a 1280 computer, to that of standards containing 10, 50, or 100 μg/ml TFT Instrumental reproducibility of the calculated areas was checked by comparing the integral for the […] standard to that calculated from a scale setting obtained with a 100 μg/ml standard. […]
(§2) In FIG. 3, representative ^19 F NMR spectra was measured with the Nicolet GE NT-300 NMR spectrometer at a field strength of 7.05 T, using a 2:1 v/v D2 O/methanol mixture as a field-frequency lock. […]

[3] = as above; design: species or system CBA/J mice; HSV-2 (333 strain); settings: in vivo, iv, 100 mg/kg, TFT concentration in liver homogenate by 19F NMR (FIG. 3B)
Method: as §1, §2

HSV TK = settings: cited from earlier work
[4] = tested on: livers of mice infected with HSV-2; assay: TFT concentration in livers of HSV-2 infected mice (with uninfected and CCl4 hepatitis controls) by HPLC after i.v. injection
Method: (§3) For comparison, TFT levels were measured in the livers of uninfected mice and mice with carbon tetrachloride (CCl4) induced hepatitis.
(§4) HSV-2 (333 strain) was grown and titered in Vero cells as previously described [Rand -t al, J. Med. Virol., Vol. 20, pp. 1-8 (1986).
(§5) The following strains of mice were obtained from the National Cancer Institute: Balb/c, CBA/J, A/HeN, A/J, P/N, and DBA/2N.
(§6) Carbon tetrachloride was dissolved in olive oil for injection. Trifluorothymidine was assayed by high pressure liquid chromatography (HPLC).
(§7) 4-6 week old, 18-23 gm, CBA/J mice were injected intraperitoneally (i.p.) with 1.5 ml of HSV-2 (2-4×10^6 pfu/ml). […] Three days after infection, mice were anesthetized with a 3:1 mixture of 100 mg/ml ketamine HCl:20 mg/ml Xylazine at a dose of 0.2 ml/kg. The jugular vein was surgically exposed, and mice were injected intravenously with 100 or 160 mg/kg of TFT in the appropriate volume of a 20 mg/ml solution in Phosphate Buffered Saline (PBS) pH 7.4. Mice were sacrificed at 45 minutes, 2 hours, 2.5 and 3.5 hours after I.V. injection of TFT. The livers were immediately excised and frozen at -70° C. until they could be studied. For viral titration and measurement of TFT, 1.5 ml of phosphate buffered saline pH 7.4 was mixed with 1 g of liver and the mixture homogenized (10 strokes using a Pyrex Ten Broeck tissue grinder), followed by sonication ×4 for 30 sec. in a Fisher 300 sonic dismembrator at a relative output of 0 55; 0.8 ml of the liver homogenate was mixed with an equal volume of methanol, vortexed extensively and then centrifuged at 15,000×g for 15 minutes. The supernatant was analyzed by HPLC for TFT and the results expressed per gram of liver after correction for dilution. Prior to sonication, 0.5 ml of the liver homogenate was serially diluted in serum free tissue culture media and titrated in triplicate in Vero cells as previously described [Rand et al, supra]. In some experiments the clarified supernatant that had been mixed with methanol as described above was placed in a 5 mm NMR tube and ^19 F content measured by NMR spectroscopy. In other experiments the entire liver was excised, and placed in a 12 mm NMR tube and the ^19 F directly analyzed by NMR spectroscopy.
(§8) Prior to i.p. injection of CCl4 in olive oil, 0.2 ml of blood was collected from each of a group of 5 mice. Twenty-four hours after i.p. injection of 0.1 ml/kg CCl4 in olive oil, blood was collected again, and both sets were analyzed for Alanine Amino Transferase (ALT) and Blood Urea Nitrogen (BUN). For ALT, 2 μl serum was analyzed in duplicate with a Technicon RA 1000 and for BUN 10 μl duplicate samples were analyzed with a Beckman Astra 8. Mice were sacrificed by cervical dislocation and the liver and kidney fixed in 10% formalin, stained with hematoxylin and eosin and examined histologically.
(§9) Therefore, data were analyzed by the non-parametric Mann-Whitney U test.
(§10) In FIG. 1, 1 HSV-2 infected, uninfected and CCl4 treated 4-6 week old CBA/J mice were injected via the jugular vein with 100 mg/kg TFT, and sacrificed at 45 minutes, 2 hours or 3.5 hours later. […] Most of the experiments were done on day 3 after HSV infection; day 2 after infection was not systematically studied, and is presented only for comparison.
(§11) In FIG. 2, the relationship between HSV-2 titer/g liver and TFT concentration/g liver measured by HPLC on day 3 after HSV-2 infection, 2 h (O's) and 2.5 h ( 's) following i.v. administration of TFT. Two separate experiments are shown. Data were analyzed by linear regression.

in vivo = settings: mouse, in vivo, iv
Method: as §3, §4, §5, §6, §7, §8, §9, §10, §11

[5] = TFT blood levels after i.v. injection; assay type: in vivo, CBA/J mice
Method: as §6

[6] = tested on: murine hepatitis virus (MHV-A59); design: species or system CBA/J mice; MHV-A59; settings: mouse, in vivo
Description: Symbols used: =HSV-2; O=MHV-A 59; Δ=uninfected.

[7] = CCl4 induced hepatitis: Alanine Amino Transferase (ALT), Blood Urea Nitrogen (BUN) and histology; assay type: in vivo, CBA/J mice
Method: Preliminary experiments were then carried out to determine the average ALT levels of HSV-2 infected mice on day 3 at the time higher levels of TFT were found in the liver. […] A dose response curve of CCl4 hepatitis had shown that between 0.015-0.02 ml/kg CCl4 would lead to ALT levels of 500-5000 IU/ml blood. […]

[8] = tested on: optic nerve and chiasm of rats after intraocular inoculation of HSV-1; settings: rat, in vivo; cited from earlier work
HSV infected tissues = settings: cited from earlier work
[9] = mouse, in vivo, iv, 160 mg/kg, 2 h

O=c1[nH]c(=O)n([C@H]2C[C@H](O)[C@@H](CO)O2)cc1C(F)(F)F [TFT, trifluorothymidine]
Intracellular accumulation in HSV infected cells (HSV infected cells): intracellular accumulation; also recorded: accumulate in tissue culture
Blood brain barrier crossing [1]: crosses the blood brain barrier poorly
TFT concentration in liver homogenate by 19F NMR (FIG. 3B) [2]: 11 μg/g liver
concentration at 3.5 h [3]: 11000 ng/g
Phosphorylation by HSV TK (HSV TK): phosphorylated by the HSV TK
TFT levels in livers of HSV-2 infected mice, positive control in MHV experiment ([4]; 2 HSV-2 infected mice with titers of 10^6 pfu HSV/g liver (FIG. 4)): high levels of TFT in liver; also recorded: strikingly elevated levels
Accumulation of TFT in liver after i.p. injection ([4]; i.p. injection, HSV infected mice): impossible to demonstrate accumulation of TFT in the liver
TFT levels in livers of HSV-2 infected mice vs uninfected or CCl4 treated mice ([4]; i.v. injection of TFT, 2 and 3.5 hours in FIG. 1 (100 mg/kg), 100 mg/kg): significantly higher levels of TFT in their livers at both 2 and 3.5 hours; also recorded: highly elevated levels of TFT
Mean conc. of TFT in liver, infected mice [4, 9]: 110.1 μg/g liver
Mean conc. of TFT in liver, uninfected mice [4, 9]: 14.7 μg/g liver
TFT levels in liver on day 2 after HSV-2 infection ([4]; viral titers low (10^3 /g liver)): higher levels of TFT could be found in the livers of HSV-2 infected mice on day 2 as well as day 3
concentration at 2 h (in vivo; 100 mg/kg, TFT concentration in liver by HPLC, CCl4 hepatitis): < 1000 ng/g
concentration at 2 h (in vivo; 160 mg/kg, Mean conc. of TFT in liver, infected mice): 110000 ng/g
concentration at 2 h (in vivo; 160 mg/kg, Mean conc. of TFT in liver, uninfected mice): 14700 ng/g
Blood levels of TFT at 45 minutes, difference among groups ([5]; 100 mg/kg i.v., HSV-2 infected, uninfected, CCl4 treated): essentially no difference in blood levels
Blood levels of TFT at 2 hours ([5]; i.v. injection, 2 hours, any of the groups): no detectable drug at 2 hours in the blood; also recorded: no measurable blood levels
TFT level vs MHV titer [6]: No relationship between MHV titer and TFT level

ClC(Cl)(Cl)Cl [CCl4, carbon tetrachloride]
ALT levels in blood after CCl4 (0.015-0.02 ml/kg), dose response curve ([7]; 0.015-0.02 ml/kg CCl4): 500-5000 IU/ml blood
Renal function (BUN) after CCl4 ([7]; 0.2 ml/kg i.p.): no significant alternation in renal function
ALT levels in blood after CCl4 (0.2 ml/kg) ([7]; 0.2 ml/kg in olive oil i.p., a day later, typical range): 20,000-30,000 IU/ml
Hepatic necrosis after CCl4 ([7]; 0.2 ml/kg in olive oil i.p., a day later / histology): overwhelming hepatic necrosis; also recorded: massive
ALT after CCl4 (0.02 ml/kg) ([7]; 24 h post treatment, 0.02 ml/kg, N = 12, after receiving 100 mg/kg TFT, Mean ± SD): 18950 ± 7526 IU/L
BUN after CCl4 ([7]; 24 h post treatment, 0.2 ml/kg i.p., N = 5, Mean ± SD, pre treatment 10.4 + 2.7): 6.4 ± 2.3 mg/dL
ALT after CCl4 (0.2 ml/kg) ([7]; 24 h post treatment, 0.2 ml/kg i.p., N = 5, Mean ± SD, pre treatment 28.2 ± 13.8): 28112 ± 6086 IU/L
Hepatic necrosis after low dose CCl4, histology ([7]; dose printed as 0.0 ml/kg): more localized and less extensive

Nc1nc2c(ncn2COCCO)c(=O)[nH]1 [DHPG, 9-(2-Hydroxyethyoxymethyl) guanine]
Degradation of phosphorylated drug back to parent compound (HSV infected cells): did not hydrolyze back to the parent compound as readily
Intracellular accumulation in HSV infected cells (HSV infected cells): intracellular accumulation; also recorded: accumulated in a similar manner

Cc1cn([C@@H]2O[C@H](CO)[C@@H](O)[C@@H]2F)c(=O)[nH]c1=O [FMAU, 2' fluoro-5-methyl-1-β-D-arabinosyluracil]
Accumulation of FMAU in choroid plexus and cells lining the ventricular walls [8]: non-specific accumulation
Concentration of FMAU in optic nerve and chiasm [8]: specific concentration of the drug in the optic nerve and chiasm

Nc1nc2c(ncn2COCCO)c(=O)[nH]1 [acyclovir]
Degradation of phosphorylated drug back to parent compound (HSV infected cells): rapidly degraded back to acyclovir, and diffused out of the cell
Intracellular accumulation in HSV infected cells (HSV infected cells): intracellular accumulation; also recorded: accumulate in tissue culture; also recorded: accumulated in the form of phosphorylated intermediates
Selective accumulation of acyclovir in HSV infected tissues in vivo (HSV infected tissues; Price et al): unable to demonstrate any selective accumulation
Duration of elevated plasma levels of acyclovir (HSV infected tissues; s.c. injection, Biron et al, "remained reasonably elevated"): ≥ 2 h
Phosphorylation by HSV TK (HSV TK): phosphorylated by the HSV TK
